The test system of this experiment is PCA response. Kind of experiment: Rat Passive Cutaneous Anaphylaxis (PCA) test, ovalbumin challenge. The note with it: for % Inhibition of PCA response: 34 mg/kg. In kind it is in vivo, Wistar rats. The method, then:
All of the 2-nitro indane-1,3-dione prepared in the preceding Examples were submitted for biological testing. The test system was the Rat Passive Cutaneous Anaphylaxis (PCA) test described below in (ii).
Male Wister rats of 250- 300 g, were injected intraperitoneally with 0.5 ml of Bordatella pertussis vaccine (containing 4× 10^10 dead organism per ml) and subcutaneously with 0.5 ml of an emulsion of 100 mg. of ovalbumin in 2 ml of saline and 3 ml of incomplete Freunds' adjuvant. Rats were bled by cardiac puncture on day 18, the blood was pooled and separated and serum stored at -20° and thawed only once before use.
0.1 ml of each of six twofold serial dilutions of the serum in 0.9% saline were injected intradermally into separate sites on the shaved dorsal surface of 250-350 g. Wistar rats. 72 hours later the animals were challenged by i.v. injection of 0.3 ml of 1% ovalbumin mixed with 0.1 ml of a 5% solution of pontamine sky blue dye both in isotonic saline buffered with pH. 7.2 Sorenson buffer (P.B.S.). The rats were killed after 20 minutes and the diameter of the blue wheals at the antibody injection sites were measured. The starting dilution of the serum was adjusted so that there was no response, after challenge, at the site of injection of the highest dilution and a maximum response at the lowest dilution.
Amounts of the compounds were administered to rats each amount to a test group of six animals at a specified time prior to intravenous challenge with ovalbumin.
For those compounds having insoluble sodium salts, the salts were isolated by reaction of the free nitro compound with 2.5N sodium hydroxide and the filtered sodium washed free of alkali with water. The dried salts were then administered as a suspension in 1% methyl cellulose.

The mark [1] stands for this setting: 25 mg/kg, 0 min between dosing and challenge, suspension of Na salt in 1% methyl cellulose.
The mark [2] stands for this setting: 25 mg/kg, 60 min between dosing and challenge, suspension of Na salt in 1% methyl cellulose.
[3] abbreviates: 100 mg/kg, 0 min between dosing and challenge, suspension of Na salt in 1% methyl cellulose.
[4] abbreviates: 100 mg/kg, 60 min between dosing and challenge, suspension of Na salt in 1% methyl cellulose.
The mark [5] stands for this setting: 25 mg/kg, 0 min between dosing and challenge, solution of Na salt.
The mark [6] stands for this setting: 25 mg/kg, 30 min between dosing and challenge, solution of Na salt.
[7] abbreviates: 100 mg/kg, 0 min between dosing and challenge, solution of Na salt.
The mark [8] stands for this setting: 100 mg/kg, 30 min between dosing and challenge, solution of Na salt.
Setting [9] is: 25 mg/kg, 60 min between dosing and challenge, solution of Na salt.
Where [10] appears, read: 100 mg/kg, 60 min between dosing and challenge, solution of Na salt.

Each structure is given as a SMILES string.

Regarding `O=C1c2cccc(Br)c2C(=O)C1[N+](=O)[O-]` (stereo not shown) [4-bromo-2-nitroindane-1,3-dione, 4-Bromo-2-nitro indane-1,3dione], the “% INHIBITION OF PCA RESPONSE” value is on record as 8% under setting [1], 24% under setting [2], -4% under setting [3] and 70% under setting [4].
Regarding `CCc1cc(OC)c2c(c1)C(=O)C([N+](=O)[O-])C2=O` (stereo not shown) [6-Ethyl-4-methoxy-2-nitro indane-1,3-dione], the “% INHIBITION OF PCA RESPONSE” value is recorded as 66% under setting [5], 37% under setting [6], 91% under setting [7] and 32% under setting [8].
Consider `O=C1c2ccc3ccccc3c2C(=O)C1[N+](=O)[O-]` (stereo not shown) [2-nitrobenz(e) indane-1,3-dione, 2-Nitro benz(e)indane-1,3-dione], for which the “% INHIBITION OF PCA RESPONSE” value came to 16% under setting [1], 50% under setting [2], 13% under setting [3] and 47% under setting [4].
Consider `COc1cc(C)cc2c1C(=O)C([N+](=O)[O-])C2=O` (stereo not shown) [4-Methoxy-6-methyl-2-nitro indane-1,3-dione], for which the “% INHIBITION OF PCA RESPONSE” value is, setting by setting: under setting [5], 34%; under setting [6], 31%; under setting [7], 80%; under setting [8], 24%.
In the case of `O=C1c2cccc(-c3ccccc3)c2C(=O)C1[N+](=O)[O-]` (stereo not shown) [2-nitro-4-phenyl indane 1,3 indione, 2-Nitro-4-Phenyl indane-1,3-dione], the “% INHIBITION OF PCA RESPONSE” value came out at 12% under setting [5], 22% under setting [9], 8% under setting [7] and 24% under setting [10].
Turning to `Cc1cc(C)c2c(c1)C(=O)C([N+](=O)[O-])C2=O` (stereo not shown) [4,6-dimethyl-2-nitroindane-1,3-dione, 4,6-Dimethyl-2-nitro-indane-1,3-dione], the “% INHIBITION OF PCA RESPONSE” value runs as follows: under setting [5], 58%; under setting [6], 27%.
On to `O=C1c2ccc3c(c2C(=O)C1[N+](=O)[O-])CCC3` (stereo not shown) [4,5-cyclopentano 2-nitroindane 1,3-dione, 4,5-Cyclopentano-2-nitro indane-1,3-dione], for which the “% INHIBITION OF PCA RESPONSE” value runs as follows: under setting [1], 5%; under setting [2], 34%; under setting [3], 26%; under setting [4], 28%.
As to `COc1ccc(C)c2c1C(=O)C([N+](=O)[O-])C2=O` (stereo not shown) [4-Methoxy-7-methyl-2-nitro indane1,3-dione], the “% INHIBITION OF PCA RESPONSE” value worked out at 34% under setting [5], 62% under setting [6], 36% under setting [7] and 44% under setting [8].
As to `CC(C)Oc1cccc2c1C(=O)C([N+](=O)[O-])C2=O` (stereo not shown) [4-isopropyloxy-2-nitroindane 1,3-dione, 4Isopropyloxy-2-nitro-indane-1,3-dione], the “% INHIBITION OF PCA RESPONSE” value is, setting by setting: under setting [1], 23%; (25 mg/kg, 30 min between dosing and challenge, suspension of Na salt in 1% methyl cellulose) 36%; under setting [3], 49%; (100 mg/kg, 30 min between dosing and challenge, suspension of Na salt in 1% methyl cellulose) 51%.
In the case of `CCCCOc1cccc2c1C(=O)C([N+](=O)[O-])C2=O` (stereo not shown) [4-n-butyloxy-2-nitroindane 1,3-dione, 4-n-Butyloxy-2-nitro indane-1,3-dione], the “% INHIBITION OF PCA RESPONSE” value runs as follows: under setting [5], 29%; under setting [9], 43%; under setting [7], 63%; under setting [10], 50%.
In the case of `O=C1c2ccc(Br)cc2C(=O)C1[N+](=O)[O-]` (stereo not shown) [5-bromo-2-nitroindane-1,3-dione, 5-Bromo-2-nitro indane-1,3-dione], the “% INHIBITION OF PCA RESPONSE” value under setting [5] came out at 46%, the “% INHIBITION OF PCA RESPONSE” value under setting [9] is given as 87%, the “% INHIBITION OF PCA RESPONSE” value under setting [7] was 30% and the “% INHIBITION OF PCA RESPONSE” value under setting [10] was determined as 64%.
The matching figures for `O=C1c2c(Cl)c(Cl)c(Cl)c(Cl)c2C(=O)C1[N+](=O)[O-]` [2-Nitro-4,5,6,7-tetrachloro indane-1,3-dione]: -13%, 9%, -3% and 7%.
Consider `O=C1c2ccc(-c3ccccc3)cc2C(=O)C1[N+](=O)[O-]` (stereo not shown) [2-nitro-5-phenyl indane-1,3-dione, 2-Nitro-5-phenyl indane-1,3-dione], for which the “% INHIBITION OF PCA RESPONSE” value is, setting by setting: under setting [1], 58%; under setting [2], 56%; under setting [3], 82%; under setting [4], 36%.
Take `CCOc1cccc2c1C(=O)C([N+](=O)[O-])C2=O` (stereo not shown) [4-ethoxy-2-nitroindane-1,3-dione, 4-Ethoxy-2-nitro indane-1,3-dione]: the “% INHIBITION OF PCA RESPONSE” value under setting [5] was determined as 13%, the “% INHIBITION OF PCA RESPONSE” value under setting [6] is on record as 68%, the “% INHIBITION OF PCA RESPONSE” value under setting [7] amounted to 76% and the “% INHIBITION OF PCA RESPONSE” value under setting [8] worked out at 55%.
Regarding `CCc1cccc2c1C(=O)C([N+](=O)[O-])C2=O` (stereo not shown) [4-ethyl-2-nitroindane-1,3-dione, 4-Ethyl-2-nitro indane-1,3-dione], the “% INHIBITION OF PCA RESPONSE” value reads like this: under setting [1], -5%; under setting [2], 23%; under setting [3], 1%; under setting [4], 25%.
As for `CCCOc1cccc2c1C(=O)C([N+](=O)[O-])C2=O` (stereo not shown) [4-n-propyloxy 2-nitroindane 1,3-dione, 2-Nitro-4-n-Propyloxy indane-1,3-dione], the “% INHIBITION OF PCA RESPONSE” value under setting [5] came to 77%, the “% INHIBITION OF PCA RESPONSE” value under setting [6] turned out to be 37%, the “% INHIBITION OF PCA RESPONSE” value under setting [7] is listed as 30% and the “% INHIBITION OF PCA RESPONSE” value under setting [8] stood at 37%.
For the molecule `O=C1c2cc3ccccc3cc2C(=O)C1[N+](=O)[O-]` [2-nitro-benz[f] indane 1,3-dione, 2-Nitro benz[f] indane-1,3-dione], the “% INHIBITION OF PCA RESPONSE” value by setting is: under setting [1], 100%; under setting [2], 37%; under setting [3], 100%; under setting [4], 72%.
For `Cc1ccc2c(c1)C(=O)C([N+](=O)[O-])C2=O` (stereo not shown) [5-methyl-2-nitroindane-1,3-dione, 5-Methyl-2-nitroindane-1,3-dione], the “% INHIBITION OF PCA RESPONSE” value came out at 66% under setting [5], 44% under setting [6], 100% under setting [7] and 47% under setting [8].
Take `Cc1cccc2c1C(=O)C([N+](=O)[O-])C2=O` (stereo not shown) [4-methyl-2-nitroindane-1,3-dione, 4-Methyl-2-nitroindane-1,3-dione]: the “% INHIBITION OF PCA RESPONSE” value is, setting by setting: under setting [1], 2%; under setting [2], 33%; under setting [3], 6%; under setting [4], 57%.
As for `O=C1c2ccc3c(c2C(=O)C1[N+](=O)[O-])CCCC3` (stereo not shown) [4,5-cyclohexano 2-nitroindane 1,3-dione, 4,5-Cyclohexano-2-nitroindane-1,3-dione], the “% Inhibition of PCA response” value runs as follows: (0 min between dosing and challenge, suspension of Na salt in 1% methyl cellulose) 7%; (60 min between dosing and challenge, suspension of Na salt in 1% methyl cellulose) 32%.
For `CC(C)COc1cccc2c1C(=O)C([N+](=O)[O-])C2=O` (stereo not shown) [4-isobutyloxy-2-nitroindane 1,3-dione, 4-Isobutyloxy-2-nitro indane-1,3-dione], the “% INHIBITION OF PCA RESPONSE” value is on record as 61% under setting [5], 28% under setting [6], 78% under setting [7] and 41% under setting [8].
For the molecule `O=C1c2cccc(F)c2C(=O)C1[N+](=O)[O-]` (stereo not shown) [4-fluoro-2-nitroindane-1,3-dione, 4-Fluoro-2-nitro indane-1,3-dione], the “% INHIBITION OF PCA RESPONSE” value under setting [5] is 48%, the “% INHIBITION OF PCA RESPONSE” value under setting [6] turned out to be 8%, the “% INHIBITION OF PCA RESPONSE” value under setting [7] worked out at 86% and the “% INHIBITION OF PCA RESPONSE” value under setting [8] came out at 30%.
Take `Cc1ccc(C)c2c1C(=O)C([N+](=O)[O-])C2=O` [4,7-dimethyl-2-nitroindane-1,3-dione, 4,7-Dimethyl-2-nitro-indane-1,3-dione]: the “% INHIBITION OF PCA RESPONSE” value is, setting by setting: under setting [1], 35%; under setting [2], 16%; under setting [3], 46%; under setting [4], 8%.

The record behind these values is patent US3988476A, “Pharmaceutical compositions and methods of treating allergic conditions utilizing 2-nitroindane-1,3-dione derivatives as the active agent” (Beecham Group Limited, priority 1972, dated 1976).
